# Columns and labels:
# male OF-1 mice [1] = details: general statement, no dose given; cited from earlier work
# “intruder” rat = details: background statement on anxiolytic compounds; cited from earlier work
# [2] = test system: male OF-1 “intruder” mice; details: earlier work (Dixon et al. 1994); cited from earlier work
# male OF-1 mice [3] = experiment: half-enclosed platform (HEP) test; format: in vivo, mouse
# From the text: Rufinamide and carbamazepine were compared in the half-enclosed platform (HEP) test. The test determines how drugs affect the exploratory behaviour of a mouse placed upon a novel, half-enclosed platform and gives information as to whether a drug is a stimulant, depressant or disinhibitory as with, for example the benzodiazepines which increase exploration of the platform. It is also useful for determining duration of action and dose-findings studies. The HEP is a further development of the simple elevated platform used by Kaesermann to assess anxiolytic properties of drugs (Ref. Käsermann H. P. (1986) Psychopharmacol. 89:31-37). In this study carbamazepine and rufinamide were tested in the same dose ranges i.e. 0.32/1/3.2 and 10 mg/kg p.o. of each were given to male OF-1 mice 1 hr before testing.
# The ethogram used consists of 9 elements of exploratory behaviour two of which involve static postures i.e. immobility and stretched attend posture, the latter being an ambivalent element indicative of approach-avoidance conflict. These elements are immediately spontaneous and are not induced by either training or punishment procedures. Upright postures which are posturally demanding are useful to detect muscle relaxation e.g. rearing (FIG. 10).
# [4] = test system: male OF-1 “intruder” mice; experiment: Intruder test (social withdrawal of intruder mice); format: in vivo, mouse; details: 1/3/10 mg/kg oral
# Description: Rufinamide, a Na-channel blocker and anti-epileptic agent, and carbamazepine, an anticonvulsant employed to treat bipolar disorder, were given to male OF-1 “intruder” in oral-doses of 1/3/10 mg/kg, 1 hr before the animals were confronted with an individually-housed, aggressive, male OF-1 resident mouse. […] This increase in social investigation (sociotropic effect) was accompanied by a decrease in the frequency and duration of defensive ambivalence probably through competitive inhibition. No signs of motor stimulation were detected.
# The Intruder test duplicates a territorial encounter between a territory holder (aggressive male) and a subordinate “intruder” mouse. […] In this test the intruders receive the treatment whereas the residents remain untreated. (Dixon, A. K., Huber, C., Lowe, D. J. Clin. Psychiatry. 55 (9) Suppl B, 4-7 (1994)). For purposes of this study, rufinamide and carbamazepine were given orally to intruder mice 1 hr before being introduced singly to aggressive residents using doses of ⅓ and 10 mg/kg.
# Over 60 ethological elements describing the social and non-social behaviour of mice based on the ethogram originally proposed by Grant and Mackintosh (Grant, E. C. Mackintosh, J. H. Behaviour 21: 246-259 (1963) ) and classified according to 9 behavioural categories (Dixon, A. K., Huber, C., Fisch, H. U. Adv. Study. Behaviour. 19: 171-204 (1990)) form the rodent ethogram as used in this test (FIG. 3).
# [5] = test system: Male Rj: Wistar (Han) rats; experiment: Vogel Conflict Test in the rat; format: in vivo; details: 64 mg/kg p.o., 60 minutes before the test; p<0.01
# Description: Rufinamide was dispersed in 0.5% methylcellulose (MC) in distilled water. Vehicle was dispersed in 0.5% MC in distilled water. Clobazam was dispersed in 0.5% MC in distilled water. Methylcellulose (Sigma), batch n° 62K0144, white powder. Distilled water (Laboratoire Aguettant, sterile water for injectable preparation). All substances were stored in a dry, dark, controlled access area and maintained at a controlled ambient temperature (+18° C.). The vehicle suspensions were stored at +4° C.
# The vehicle, test substance and reference substance were administered in a volume of 5 ml/kg body weight.
# Male Rj: Wistar (Han) rats, 171-205 g body weight range were used. They were supplied by Elevage Janvier, 53940 Le Genest-Saint-Isle, France.
# Animals were delivered to the laboratory at least 5 days before the experiment, during which time they were acclimatized to the laboratory conditions. They were housed in groups of 5 in macrolon cages (41×25×14 cm) on wood litter (Litalabo—SPPS, 95100 Argenteuil, France) with free access to food (Code 113-SAFE, 91360 Epinay-sur-Orge, France) and water until
# Results in grouped data tables are presented as means followed by a ± sign and the standard error of the mean (s.e.m.) on the basis of 15 animals per group and as percent change from control. The statistical tests used are indicated with the method. All statistical calculations were performed using commercial software (Microsoft Excel®, GB Stat version 6.5), and verified test by test according to Porsolt & Partners Pharmacology's standardized internal procedures. All differences were considered statistically significant when the null hypothesis could be rejected at the risk α=0.05 or less.
# Rats were deprived of water for 48 hours and were then placed individually into a transparent Plexiglas enclosure (15×32×34 cm) with a floor consisting of stainless steel bars (0.4 cm) spaced 1 cm apart. The back wall of the enclosure was made of opaque Plexiglass thereby concealing the observer from the experimental animal. In the centre of the opposite wall, 5 cm above the floor, a metal water spout protruded into the cage and was connected to one pole of a shock generator (Apelex: Type 011346). The other pole of the shock generator was connected to the metal grid floor.
# The rat was left to explore until it found the water spout. Then, every time it drank, it received a slight electric shock (1.7 mA, 1 sec.) 2 seconds after it started lapping. The number of shocks received (punished drinkings) was counted during a 3 minute period.
# 15 rats were studied per group. The test was performed blind.
# rufinamide was evaluated at 25, 50, 100 and 200 mg/kg, administered p.o. 60 minutes before the test, and compared with a vehicle control group.
# Clobazam (64 mg/kg), administered under the same experimental conditions, was used as reference substance.
# Data were analyzed by comparing treated groups with vehicle control using unpaired Student's t tests.
# [6] = small scale placebo controlled study; cited from earlier work
structure (smiles),measurement,setting,value
CN1C(=O)CN=C(c2ccccc2)c2cc(Cl)ccc21 [diazepam],behavioural disinhibition in the HEP test,male OF-1 mice [1],demonstrable
same,intruder's fear and tendency to scrutinize the resident partner,“intruder” rat,reduce the intruder's fear and to increase its tendency to scrutinize the resident partner
NC(=O)N1c2ccccc2C=Cc2ccccc21 [carbamazepine],social withdrawal in the Intruder test,[2],reverses social withdrawal
same,"exploratory activity (Sap,Go) in the open half of the platform","male OF-1 mice [3]; 0.32-10 mg/kg p.o., not attaining statistical significance",general tendency for increased exploratory activity
same,overall ethological profile,"male OF-1 mice [3]; 0.32/1/3.2 and 10 mg/kg p.o., 1 hr before testing",No major changes in behaviour occurred
same,elements of stationary activity,male OF-1 mice [3]; at 10 mg/kg p.o.,significant decrease
same,time spent in forward locomotion (Go) in the enclosed half,male OF-1 mice [3]; at 3.2 and 10 mg/kg p.o.,significant shortening
same,"non-social (NS) behaviour, frequency",[4]; 1 hr before 6 minute encounter,did not change
same,social investigation (SI),"[4]; 1 hr before 6 minute encounter, frequency and duration",dose-related increase
same,defensive ambivalence,[4]; 1 hr before encounter,"reduced but, because of large variation did not attain significance"
same,overall social contact (SIM): social investigation combined with mating behaviour,[4]; 1 hr before encounter,preserved the clear sociotropic action
same,static-flight elements,[4]; 1 hr before encounter,dose-related reduction persisted but also did not attain significance
same,total number of ethological elements performed in the 6 minute encounter,[4]; 1 hr before encounter,did not change
CC(N)Cc1ccccc1 (stereo not shown) [amphetamine],behavioural disinhibition in the HEP test,male OF-1 mice [1],not
CN1C(=O)CC(=O)N(c2ccccc2)c2cc(Cl)ccc21 [Clobazam],"number of shocks received (punished drinking), change vs vehicle control",[5],+64%
Nc1nnc(-c2cccc(Cl)c2Cl)c(N)n1 [Lamotrigine],efficacy in treating post-traumatic stress disorder,[6],some efficacy
